# Measurements: paper PMC11822212, “High-throughput screening identifies Aurora kinase B as a critical therapeutic target for Merkel cell carcinoma” (Nature Communications, 2025)
# Read-outs that look alike come from different tables or passages of the source.
# Legend:
# [1] = system: HACAT cells; test: qHTS cell viability (CellTiter-Glo, 72 h; primary screen), control cell line; type: cell-based, human
# [2] = system: MKL-2 cells (VP-MCC); test: qHTS cell viability (CellTiter-Glo, 72 h; primary and follow-up small molecule screen); type: cell-based, human
# [3] = system: WAGA cells (VP-MCC); test: as above; type: cell-based, human
# [4] = system: MCC26 cells (VN-MCC); test: as above; type: cell-based, human
# [5] = system: HEK293T cells; test: qHTS cell viability (CellTiter-Glo, 72 h; primary screen), control cell line; type: cell-based, human
# [6] = system: MKL-1 cells (VP-MCC); test: qHTS cell viability (CellTiter-Glo, 72 h; primary and follow-up small molecule screen); type: cell-based, human
# [7] = system: MCC13 cells (VN-MCC); test: as above; type: cell-based, human
# [8] = system: UISO cells (VN-MCC); test: as above; type: cell-based, human
# [9] = system: NIH-3T3 cells; test: qHTS cell viability (CellTiter-Glo, 72 h; primary screen), control cell line; type: cell-based, mouse
# [10] = system: CRL-7250 cells; test: as above; type: cell-based
# [11] = area under the dose-response curve, HACAT control cells, AUC<450 = reduced viability
# [12] = area under the dose-response curve, MKL-2 cells, AUC<450 = reduced viability
# [13] = area under the dose-response curve, WAGA cells, AUC<450 = reduced viability
# [14] = area under the dose-response curve, MCC26 cells, AUC<450 = reduced viability
# [15] = area under the dose-response curve, HEK293T control cells, AUC<450 = reduced viability
# [16] = area under the dose-response curve, MKL-1 cells, AUC<450 = reduced viability
# [17] = area under the dose-response curve, MCC13 cells, AUC<450 = reduced viability
# [18] = area under the dose-response curve, UISO cells, AUC<450 = reduced viability
# [19] = area under the dose-response curve, NIH3T3 control cells, AUC<450 = reduced viability
# [20] = area under the dose-response curve, CRL7250 control cells, AUC<450 = reduced viability
smiles,measurement,setting,value
COC[C@H]1OC(=O)c2coc3c2[C@@]1(C)C1=C(C3=O)[C@@H]2CC[C@H](O)[C@@]2(C)C[C@H]1OC(C)=O [17_-hydroxy Wortmannin],HACAT_AUC,[1],466.176
same,Area under the dose-response curve (AUC) MKL-2 Replicate 1,[2],408.4
same,Area under the dose-response curve (AUC) MKL-2 Replicate 2,[2],434.1
same,Area under the dose-response curve (AUC) MKL-2 Replicate 3,[2],442.8
same,MKL2_AUC,[2],431.749
same,Area under the dose-response curve (AUC) WAGA Replicate 1,[3],390.4
same,Area under the dose-response curve (AUC) WAGA Replicate 2,[3],444.0
same,Area under the dose-response curve (AUC) WAGA Replicate 3,[3],465.6
same,WAGA_AUC,[3],431.369
same,Area under the dose-response curve (AUC) MCC26 Replicate 1,[4],392.5
same,Area under the dose-response curve (AUC) MCC26 Replicate 2,[4],398.0
same,Area under the dose-response curve (AUC) MCC26 Replicate 3,[4],386.6
same,MCC26_AUC,[4],506.622
same,HEK293T_AUC,[5],476.067
same,Area under the dose-response curve (AUC) MKL-1 Replicate 1,[6],417.4
same,Area under the dose-response curve (AUC) MKL-1 Replicate 2,[6],456.9
same,Area under the dose-response curve (AUC) MKL-1 Replicate 3,[6],460.6
same,MKL1_AUC,[6],433.03
same,Area under the dose-response curve (AUC) MCC13 Replicate 1,[7],446.4
same,Area under the dose-response curve (AUC) MCC13 Replicate 2,[7],414.9
same,Area under the dose-response curve (AUC) MCC13 Replicate 3,[7],433.1
same,MCC13_AUC,[7],505.746
same,Area under the dose-response curve (AUC) UISO Replicate 1,[8],419.6
same,Area under the dose-response curve (AUC) UISO Replicate 2,[8],426.0
same,Area under the dose-response curve (AUC) UISO Replicate 3,[8],431.4
same,UISO_AUC,[8],484.969
same,NIH3T3_AUC,[9],465.601
same,CRL7250_AUC,[10],461.56
CCCCCCCCCCCC1=C(O)C(=O)C=C(O)C1=O [Embelin],HACAT_AUC,[1]; [11],451.959
same,MKL2_AUC,[2]; [12],427.936
same,Area under the dose-response curve (AUC) MKL-2 Replicate 1,"[2]; follow-up screen, MKL-2, replicate 1",476.0
same,Area under the dose-response curve (AUC) MKL-2 Replicate 2,"[2]; follow-up screen, MKL-2, replicate 2",454.8
same,Area under the dose-response curve (AUC) MKL-2 Replicate 3,"[2]; follow-up screen, MKL-2, replicate 3",454.5
same,WAGA_AUC,[3]; [13],416.987
same,Area under the dose-response curve (AUC) WAGA Replicate 1,"[3]; follow-up screen, WAGA, replicate 1",543.3
same,Area under the dose-response curve (AUC) WAGA Replicate 2,"[3]; follow-up screen, WAGA, replicate 2",384.9
same,Area under the dose-response curve (AUC) WAGA Replicate 3,"[3]; follow-up screen, WAGA, replicate 3",441.0
same,MCC26_AUC,[4]; [14],492.758
same,Area under the dose-response curve (AUC) MCC26 Replicate 1,"[4]; follow-up screen, MCC26, replicate 1",439.2
same,Area under the dose-response curve (AUC) MCC26 Replicate 2,"[4]; follow-up screen, MCC26, replicate 2",416.6
same,Area under the dose-response curve (AUC) MCC26 Replicate 3,"[4]; follow-up screen, MCC26, replicate 3",455.7
same,HEK293T_AUC,[5]; [15],470.759
same,MKL1_AUC,[6]; [16],418.887
same,Area under the dose-response curve (AUC) MKL-1 Replicate 1,"[6]; follow-up screen, MKL-1, replicate 1",561.5
same,Area under the dose-response curve (AUC) MKL-1 Replicate 2,"[6]; follow-up screen, MKL-1, replicate 2",475.0
same,Area under the dose-response curve (AUC) MKL-1 Replicate 3,"[6]; follow-up screen, MKL-1, replicate 3",443.8
same,MCC13_AUC,[7]; [17],489.799
same,Area under the dose-response curve (AUC) MCC13 Replicate 1,"[7]; follow-up screen, MCC13, replicate 1",496.2
same,Area under the dose-response curve (AUC) MCC13 Replicate 2,"[7]; follow-up screen, MCC13, replicate 2",470.6
same,Area under the dose-response curve (AUC) MCC13 Replicate 3,"[7]; follow-up screen, MCC13, replicate 3",448.5
same,UISO_AUC,[8]; [18],474.744
same,Area under the dose-response curve (AUC) UISO Replicate 1,"[8]; follow-up screen, UISO, replicate 1",471.2
same,Area under the dose-response curve (AUC) UISO Replicate 2,"[8]; follow-up screen, UISO, replicate 2",418.0
same,Area under the dose-response curve (AUC) UISO Replicate 3,"[8]; follow-up screen, UISO, replicate 3",438.8
same,NIH3T3_AUC,[9]; [19],468.399
same,CRL7250_AUC,[10]; [20],461.338
CC(C)(C)NCC(O)c1cc(O)cc(O)c1.CC(C)(C)NCC(O)c1cc(O)cc(O)c1.O=S(=O)(O)O (centres unmarked) [Terbutaline hemisulfate],HACAT_AUC,[1]; [11],496.73
same,MKL2_AUC,[2]; [12],440.746
same,WAGA_AUC,[3]; [13],449.356
same,MCC26_AUC,[4]; [14],430.481
same,HEK293T_AUC,[5]; [15],465.552
same,MKL1_AUC,[6]; [16],438.666
same,MCC13_AUC,[7]; [17],446.456
same,UISO_AUC,[8]; [18],427.113
same,NIH3T3_AUC,[9]; [19],463.76
same,CRL7250_AUC,[10]; [20],479.05
Cc1nc2c([nH]1)c(=O)n(C)c(=O)n2Cc1ccco1 [Furafylline],HACAT_AUC,[1]; [11],476.414
same,MKL2_AUC,[2]; [12],443.745
same,WAGA_AUC,[3]; [13],445.554
same,MCC26_AUC,[4]; [14],399.611
same,HEK293T_AUC,[5]; [15],497.799
same,MKL1_AUC,[6]; {},414.343
same,MCC13_AUC,[7]; [17],444.774
same,UISO_AUC,[8]; [18],447.137
same,NIH3T3_AUC,[9]; [19],485.732
same,CRL7250_AUC,[10]; [20],466.658
C[C@H](CCC(=O)O)[C@H]1CC[C@H]2[C@@H]3[C@H](O)C[C@@H]4C[C@H](O)CC[C@]4(C)[C@H]3CC[C@]12C [Chenodeoxycholic acid],HACAT_AUC,[1]; [11],475.403
same,MKL2_AUC,[2]; [12],427.388
same,WAGA_AUC,[3]; [13],440.562
same,MCC26_AUC,[4]; [14],489.842
same,HEK293T_AUC,[5]; [15],474.014
same,MKL1_AUC,[6]; [16],439.87
same,MCC13_AUC,[7]; [17],458.762
same,UISO_AUC,[8]; [18],483.595
same,NIH3T3_AUC,[9]; [19],479.384
same,CRL7250_AUC,[10]; [20],462.86
